Measurements as given in publication PMC9090415, “Discovery of small molecule inhibitors of Plasmodium falciparum apicoplast DNA polymerase” (Journal of Enzyme Inhibition and Medicinal Chemistry, 2022).

Biological target: P. falciparum apicoplast DNA polymerase (Pf-apPOL) (Plasmodium falciparum, UniProt Q8ILY1)
Experiment: Fluorescence-based high-throughput DNA polymerase assay (molecular beacon), primary screen and dose-response;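 on % inhibition ApPOL 90': test concentration in µM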;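 on % inhibition apPOL 180': test concentration in µM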
Assay type: biochemical
Details: for DNA Pol: 90 min, 10 µM; for IC50: supplemental file 2, sheet IC50 nontoxic compounds, Pf-apPOL
Outline: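 Single-point screening used 10 µM compound with 20 nM polymerase, 20 nM hairpin substrate and 6 µM dNTPs for 90 min at 25 °C. Confirmatory titrations (2.5–80 µM) followed fluorescence at three times, and IC50 was derived from a fit including a cooperativity term n.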

Chain of P. falciparum apicoplast DNA polymerase (Pf-apPOL) (Q8ILY1 entry or part of it): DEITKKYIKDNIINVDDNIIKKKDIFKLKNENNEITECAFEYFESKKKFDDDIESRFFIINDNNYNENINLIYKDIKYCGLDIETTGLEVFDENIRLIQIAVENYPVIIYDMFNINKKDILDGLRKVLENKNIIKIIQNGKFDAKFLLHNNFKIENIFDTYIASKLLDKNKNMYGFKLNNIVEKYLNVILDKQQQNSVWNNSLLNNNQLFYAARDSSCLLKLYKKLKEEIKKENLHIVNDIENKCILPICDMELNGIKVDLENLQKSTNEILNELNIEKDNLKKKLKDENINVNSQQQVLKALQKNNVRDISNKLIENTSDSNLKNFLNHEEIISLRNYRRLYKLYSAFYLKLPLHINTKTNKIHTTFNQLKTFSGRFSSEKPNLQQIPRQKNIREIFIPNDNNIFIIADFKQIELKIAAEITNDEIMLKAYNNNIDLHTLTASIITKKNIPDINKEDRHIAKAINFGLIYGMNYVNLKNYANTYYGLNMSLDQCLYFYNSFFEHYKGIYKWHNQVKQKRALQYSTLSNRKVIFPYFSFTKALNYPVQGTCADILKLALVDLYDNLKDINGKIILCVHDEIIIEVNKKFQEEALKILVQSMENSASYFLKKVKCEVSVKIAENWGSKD

Structure (SMILES): O=C(CSc1nnc(-c2ccncc2)[nH]1)c1ccc(O)c(O)c1 [Molecule 89, O=C(c1ccc(c(c1)O)O)CSc1nnc([nH]1)c1ccncc1]
- % inhibition Apo pol 10' (DRC-1, concentration 2.5): 60.0938%
- % inhibition Apo pol 10' (DRC-1, concentration 5): 82.0224%
- % inhibition Apo pol 10' (DRC-1, concentration 10): 88.031%
- % inhibition Apo pol 10' (DRC-1, concentration 20): 91.1846%
- % inhibition Apo pol 10' (DRC-1, concentration 40): 93.0486%
- % inhibition Apo pol 10' (DRC-1, concentration 80): 94.9385%
- % inhibition Apol 90' (DRC-1, concentration 2.5): 43.8309%
- % inhibition Apol 90' (DRC-1, concentration 5): 70.0142%
- % inhibition Apol 90' (DRC-1, concentration 10): 80.3522%
- % inhibition Apol 90' (DRC-1, concentration 20): 84.6554%
- % inhibition Apol 90' (DRC-1, concentration 40): 86.229%
- % inhibition Apol 90' (DRC-1, concentration 80): 90.5693%
- % inhibition apPOL 180' (DRC-1, concentration 2.5): 29.303%
- % inhibition apPOL 180' (DRC-1, concentration 5): 56.5831%
- % inhibition apPOL 180' (DRC-1, concentration 10): 70.7438%
- % inhibition apPOL 180' (DRC-1, concentration 20): 76.8269%
- % inhibition apPOL 180' (DRC-1, concentration 40): 78.119%
- % inhibition apPOL 180' (DRC-1, concentration 80): 84.9374%
- % inhibition Apo pol 5' (DRC-2, concentration 2.5): 47%
- % inhibition Apo pol 5' (DRC-2, concentration 5): 49%
- % inhibition Apo pol 5' (DRC-2, concentration 10): 52%
- % inhibition Apo pol 5' (DRC-2, concentration 20): 53%
- % inhibition Apo pol 5' (DRC-2, concentration 40): 57%
- % inhibition Apo pol 5' (DRC-2, concentration 80): 58%
- % inhibition Apol 40' (DRC-2, concentration 2.5): 53%
- % inhibition Apol 40' (DRC-2, concentration 5): 62%
- % inhibition Apol 40' (DRC-2, concentration 10): 68%
- % inhibition Apol 40' (DRC-2, concentration 20): 71%
- % inhibition Apol 40' (DRC-2, concentration 40): 76%
- % inhibition Apol 40' (DRC-2, concentration 80): 78%
- % inhibition ApPOL 90' (DRC-2, concentration 2.5): 50%
- % inhibition ApPOL 90' (DRC-2, concentration 5): 62%
- % inhibition ApPOL 90' (DRC-2, concentration 10): 69%
- % inhibition ApPOL 90' (DRC-2, concentration 20): 73%
- % inhibition ApPOL 90' (DRC-2, concentration 40): 78%
- % inhibition ApPOL 90' (DRC-2, concentration 80): 80%
- % inhibition apPOL 180' (DRC-2, concentration 2.5): 34%
- % inhibition apPOL 180' (DRC-2, concentration 5): 53%
- % inhibition apPOL 180' (DRC-2, concentration 10): 63%
- % inhibition apPOL 180' (DRC-2, concentration 20): 68%
- % inhibition apPOL 180' (DRC-2, concentration 40): 76%
- % inhibition apPOL 180' (DRC-2, concentration 80): 80%
- % inhibition Apol 40' (conc. 2.5, DRC-2): 53%
- % inhibition Apol 40' (conc. 5, DRC-2): 62%
- % inhibition ApPOL 90' (conc. 5, DRC-2): 62%
- % inhibition apPOL 180' (conc. 5, DRC-2): 53%
- % inhibition Apol 40' (conc. 10, DRC-2): 68%
- % inhibition Apo pol 5' (conc. 20, DRC-2): 53%
- % inhibition apPOL 180' (conc. 20, DRC-2): 68%
- % inhibition Apol 40' (conc. 40, DRC-2): 76%
- % inhibition ApPOL 90' (conc. 40, DRC-2): 78%
- % inhibition apPOL 180' (conc. 40, DRC-2): 76%
- % inhibition Apol 40' (conc. 80, DRC-2): 78%
- % inhibition ApPOL 90' (conc. 80, DRC-2): 80%
- % inhibition apPOL 180' (conc. 80, DRC-2): 80%
- DNA Pol (primary screen value by plate and well): 90
- DNA Pol (primary screen value of the 186 hits, unit not given): 90

Structure (SMILES): O=C(CSc1nnc(-c2ccncc2)[nH]1)c1ccc(O)c(O)c1 [Molecule 89]
- IC50: < 2.5 µM

Structure (SMILES): O=C1NN(c2ccc(Cl)c(Cl)c2)C(=O)/C1=C/c1ccc(-c2ccc3c(c2)C(=O)OC3)o1 [Molecule 90, O=C1NN(C(=O)/C/1=C/c1ccc(o1)c1ccc2c(c1)C(=O)OC2)c1ccc(c(c1)Cl)Cl]
- DNA Pol ('DNA Pol' of the 186 hits list (screen value)): 51
- % inhibition Apo pol 10' (DRC-1, conc 2.5): 36.4105%
- % inhibition Apo pol 10' (DRC-1, conc 5): 68.8597%
- % inhibition Apo pol 10' (DRC-1, conc 10): 88.9603%
- % inhibition Apo pol 10' (DRC-1, conc 20): 93.857%
- % inhibition Apo pol 10' (DRC-1, conc 40): 90.5867%
- % inhibition Apo pol 10' (DRC-1, conc 80): 96.7456%
- % inhibition Apol 90' (DRC-1, conc 2.5): 24.0232%
- % inhibition Apol 90' (DRC-1, conc 5): 57.3373%
- % inhibition Apol 90' (DRC-1, conc 10): 84.2476%
- % inhibition Apol 90' (DRC-1, conc 20): 92.6423%
- % inhibition Apol 90' (DRC-1, conc 40): 85.5188%
- % inhibition Apol 90' (DRC-1, conc 80): 95.1265%
- % inhibition apPOL 180' (DRC-1, conc 2.5): 13.8146%
- % inhibition apPOL 180' (DRC-1, conc 5): 43.9311%
- % inhibition apPOL 180' (DRC-1, conc 10): 78.9656%
- % inhibition apPOL 180' (DRC-1, conc 20): 91.6394%
- % inhibition apPOL 180' (DRC-1, conc 40): 79.8129%
- % inhibition apPOL 180' (DRC-1, conc 80): 94.9011%
- % inhibition Apo pol 5' (DRC-2, conc 2.5): 31%
- % inhibition Apo pol 5' (DRC-2, conc 5): 10%
- % inhibition Apo pol 5' (DRC-2, conc 10): 34%
- % inhibition Apo pol 5' (DRC-2, conc 20): 38%
- % inhibition Apo pol 5' (DRC-2, conc 40): 61%
- % inhibition Apo pol 5' (DRC-2, conc 80): 63%
- % inhibition Apo pol 5' (DRC-2, concentration 5): 10%
- % inhibition Apo pol 5' (DRC-2, concentration 10): 34%
- % inhibition Apo pol 5' (DRC-2, concentration 80): 63%
- % inhibition Apol 40' (DRC-2, conc 2.5): 33%
- % inhibition Apol 40' (DRC-2, conc 5): 10%
- % inhibition Apol 40' (DRC-2, conc 10): 37%
- % inhibition Apol 40' (DRC-2, conc 20): 42%
- % inhibition Apol 40' (DRC-2, conc 40): 68%
- % inhibition Apol 40' (DRC-2, conc 80): 79%
- % inhibition Apol 40' (DRC-2, concentration 5): 10%
- % inhibition ApPOL 90' (DRC-2, conc 2.5): 30%
- % inhibition ApPOL 90' (DRC-2, conc 5): 9%
- % inhibition ApPOL 90' (DRC-2, conc 10): 35%
- % inhibition ApPOL 90' (DRC-2, conc 20): 40%
- % inhibition ApPOL 90' (DRC-2, conc 40): 67%
- % inhibition ApPOL 90' (DRC-2, conc 80): 82%
- % inhibition apPOL 180' (DRC-2, conc 2.5): 24%
- % inhibition apPOL 180' (DRC-2, conc 5): 6%
- % inhibition apPOL 180' (DRC-2, conc 10): 29%
- % inhibition apPOL 180' (DRC-2, conc 20): 34%
- % inhibition apPOL 180' (DRC-2, conc 40): 63%
- % inhibition apPOL 180' (DRC-2, conc 80): 83%
- % inhibition apPOL 180' (DRC-2, concentration 20): 34%
- % inhibition apPOL 180' (DRC-2, concentration 40): 63%
- DNA Pol (primary screen value, "DNA Pol"): 51

Structure (SMILES): O=C1NN(c2ccc(Cl)c(Cl)c2)C(=O)/C1=C/c1ccc(-c2ccc3c(c2)C(=O)OC3)o1 [Molecule 90]
- IC50: 3.43 µM
